In ChEMBL document CHEMBL5523697, “Colony Stimulating Factor-1 Receptor: An emerging target for neuroinflammation PET imaging and AD therapy” (Bioorg Med Chem, 2024):
One block for each compound: values may come before it.

How the values were obtained:
[1] = molecular target: T1, Macrophage colony-stimulating factor 1 receptor (Homo sapiens, UniProt P07333)
[2] = physchem; conditions: buffer, pH 7.4
[3] = molecular target: T1, Macrophage colony-stimulating factor 1 receptor; remark: listed apart in the source
[4] = molecular target: T1, Macrophage colony-stimulating factor 1 receptor; remark: listed apart in the source
[5] = in vivo; conditions: mouse, brain, iv, 5 mg/kg
[6] = physchem; conditions: octanol/water
[7] = in vivo; conditions: mouse, brain, iv, 5 mg/kg; remark: listed apart in the source
[8] = in vivo; conditions: mouse, brain
[9] = in vivo; conditions: mouse, brain, iv, 5 mg/kg; remark: listed apart in the source

T1 sequence (P07333 whole entry): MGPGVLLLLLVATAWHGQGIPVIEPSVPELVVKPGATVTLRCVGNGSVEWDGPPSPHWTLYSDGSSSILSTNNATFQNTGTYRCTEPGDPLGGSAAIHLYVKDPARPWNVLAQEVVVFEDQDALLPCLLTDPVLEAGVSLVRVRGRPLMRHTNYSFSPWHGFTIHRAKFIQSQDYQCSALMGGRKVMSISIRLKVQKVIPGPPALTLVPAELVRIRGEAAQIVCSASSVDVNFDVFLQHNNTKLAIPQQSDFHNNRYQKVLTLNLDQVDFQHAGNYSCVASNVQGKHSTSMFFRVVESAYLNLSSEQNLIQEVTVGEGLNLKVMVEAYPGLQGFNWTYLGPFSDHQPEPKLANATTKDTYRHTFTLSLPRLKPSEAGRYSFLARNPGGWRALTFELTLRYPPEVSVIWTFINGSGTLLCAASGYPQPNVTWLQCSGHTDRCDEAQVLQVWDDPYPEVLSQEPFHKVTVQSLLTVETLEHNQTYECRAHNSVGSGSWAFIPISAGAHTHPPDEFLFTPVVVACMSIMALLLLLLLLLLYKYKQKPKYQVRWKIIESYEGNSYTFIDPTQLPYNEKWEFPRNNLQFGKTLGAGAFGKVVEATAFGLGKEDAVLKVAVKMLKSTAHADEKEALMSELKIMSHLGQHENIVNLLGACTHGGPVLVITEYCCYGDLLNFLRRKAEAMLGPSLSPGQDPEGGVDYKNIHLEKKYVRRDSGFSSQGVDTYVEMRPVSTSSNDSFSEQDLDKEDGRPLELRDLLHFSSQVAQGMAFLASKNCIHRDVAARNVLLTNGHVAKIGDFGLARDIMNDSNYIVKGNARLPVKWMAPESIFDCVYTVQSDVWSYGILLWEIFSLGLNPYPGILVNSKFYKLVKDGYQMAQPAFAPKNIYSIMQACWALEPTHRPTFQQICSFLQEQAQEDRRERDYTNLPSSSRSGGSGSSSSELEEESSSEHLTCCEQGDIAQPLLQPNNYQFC

Kd [1]: 26 nM
logD [2]: 3.38
Structure (SMILES): CNC(=O)c1cc(Oc2ccc3nc(N([11CH3])[C@@H]4CCCC[C@H]4O)sc3c2)ccn1

IC50 [3]: 6 nM
Structure (SMILES): CCOc1cc2ncc(C(N)=O)c(Nc3ccc(F)cc3F)c2cc1N1CCN([11CH3])CC1

Kd [1]: 15.7 nM
logD [2]: 3.67
Structure (SMILES): CNC(=O)c1cc(Oc2ccc3nc(N(C)[C@@H]4CCCC[C@H]4O)sc3c2)ccn1

Ki [4]: 8 nM
Structure (SMILES): CCOc1cc2ncc(C(N)=O)c(Nc3ccc(F)cc3F)c2cc1N1CCN(C)CC1

tissue uptake at 0.25 h [5]: 1.35 %ID/g
logD [6]: 2.26
tissue uptake at 1 h [7]: 1.3 %ID/g
tissue uptake at 1 h [8]: 1.18 %ID/g
tissue uptake at 5 min [9]: 2 %ID/g
Structure (SMILES): [11CH3]NC(=O)c1cc(Oc2ccc3nc(N[C@@H]4CCCC[C@H]4O)sc3c2)ccn1
